Data from patent US20250042847A1, “SUBSTITUTED PHENYLPROPIONIC ACID DERIVATIVE AND USE THEREOF” (TUOJIE BIOTECH (SHANGHAI) CO., LTD., priority 2021, published 2025).
Where a name gives a salt, the structure may show the parent alone.

Experiments:
[1] = target: Apo(a) and ApoB protein assembly (Homo sapiens (Human), UniProt P08519); test: Test for activity of compounds in inhibiting Lp(a) assembly (double antibody ELISA); assay type: biochemical; conditions: plasma from human transgenic hApo(a) and hApoB mice; 37° C., 2 h; ELISA absorbance at 450 nm
Sequence of Apo(a) and ApoB protein assembly (P08519 20-2040): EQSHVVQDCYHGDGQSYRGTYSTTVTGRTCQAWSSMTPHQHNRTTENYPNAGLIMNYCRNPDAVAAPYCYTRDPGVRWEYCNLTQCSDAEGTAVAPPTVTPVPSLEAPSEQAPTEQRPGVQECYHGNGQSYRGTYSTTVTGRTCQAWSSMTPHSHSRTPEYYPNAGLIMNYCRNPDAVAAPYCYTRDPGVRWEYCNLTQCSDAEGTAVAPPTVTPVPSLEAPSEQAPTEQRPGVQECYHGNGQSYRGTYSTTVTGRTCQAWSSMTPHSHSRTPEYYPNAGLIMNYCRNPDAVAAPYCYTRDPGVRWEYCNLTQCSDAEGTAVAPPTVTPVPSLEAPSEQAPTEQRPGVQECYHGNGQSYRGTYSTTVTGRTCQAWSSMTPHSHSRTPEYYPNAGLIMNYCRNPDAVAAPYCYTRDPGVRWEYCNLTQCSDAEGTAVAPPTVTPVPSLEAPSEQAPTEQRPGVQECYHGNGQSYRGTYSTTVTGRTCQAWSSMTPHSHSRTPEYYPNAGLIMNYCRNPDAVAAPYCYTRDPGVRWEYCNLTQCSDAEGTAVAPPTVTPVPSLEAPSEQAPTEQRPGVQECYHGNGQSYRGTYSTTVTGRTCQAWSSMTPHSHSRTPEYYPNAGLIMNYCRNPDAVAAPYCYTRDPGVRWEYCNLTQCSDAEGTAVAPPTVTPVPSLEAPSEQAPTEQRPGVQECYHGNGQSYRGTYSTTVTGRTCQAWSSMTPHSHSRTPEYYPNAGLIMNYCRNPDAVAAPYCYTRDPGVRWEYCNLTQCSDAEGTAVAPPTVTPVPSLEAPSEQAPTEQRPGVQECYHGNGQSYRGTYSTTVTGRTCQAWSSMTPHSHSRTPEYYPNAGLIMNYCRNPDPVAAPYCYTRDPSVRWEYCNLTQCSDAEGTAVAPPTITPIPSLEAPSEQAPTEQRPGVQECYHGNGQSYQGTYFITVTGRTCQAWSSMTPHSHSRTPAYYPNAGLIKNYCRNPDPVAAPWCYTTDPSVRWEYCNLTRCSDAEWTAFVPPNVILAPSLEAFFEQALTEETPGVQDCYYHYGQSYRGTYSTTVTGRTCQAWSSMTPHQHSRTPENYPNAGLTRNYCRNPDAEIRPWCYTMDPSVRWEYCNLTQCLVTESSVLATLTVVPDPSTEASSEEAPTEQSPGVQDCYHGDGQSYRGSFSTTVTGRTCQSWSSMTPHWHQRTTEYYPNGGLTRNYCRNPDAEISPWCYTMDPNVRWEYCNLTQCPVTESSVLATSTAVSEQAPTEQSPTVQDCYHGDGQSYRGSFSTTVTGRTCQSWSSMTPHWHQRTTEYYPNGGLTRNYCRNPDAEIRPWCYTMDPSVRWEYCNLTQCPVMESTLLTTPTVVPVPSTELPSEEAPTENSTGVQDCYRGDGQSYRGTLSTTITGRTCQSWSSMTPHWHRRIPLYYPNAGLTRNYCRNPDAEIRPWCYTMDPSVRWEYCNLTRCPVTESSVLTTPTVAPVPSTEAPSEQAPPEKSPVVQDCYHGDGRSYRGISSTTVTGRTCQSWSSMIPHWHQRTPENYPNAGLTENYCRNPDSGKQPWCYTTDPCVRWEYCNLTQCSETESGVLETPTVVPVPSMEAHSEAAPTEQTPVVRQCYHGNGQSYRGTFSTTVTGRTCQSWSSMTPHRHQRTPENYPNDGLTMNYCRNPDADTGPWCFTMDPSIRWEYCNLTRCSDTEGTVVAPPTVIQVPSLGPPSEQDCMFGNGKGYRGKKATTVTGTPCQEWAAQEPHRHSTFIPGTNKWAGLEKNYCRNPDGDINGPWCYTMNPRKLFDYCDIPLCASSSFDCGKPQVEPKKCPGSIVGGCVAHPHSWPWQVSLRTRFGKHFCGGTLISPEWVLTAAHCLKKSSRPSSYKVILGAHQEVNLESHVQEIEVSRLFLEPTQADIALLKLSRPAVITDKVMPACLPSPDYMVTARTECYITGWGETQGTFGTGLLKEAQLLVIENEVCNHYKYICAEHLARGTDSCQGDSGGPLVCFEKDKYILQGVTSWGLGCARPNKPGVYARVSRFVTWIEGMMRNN
Protocol: The disclosure used a double antibody ELISA method to measure the efficiency of Apo(a) and ApoB protein assembly. The antibodies were ApoB-Capture antibody (Mabtech) and Apo(a)-Detector antibody (Abcam); the test samples were plasma from human transgenic hApo(a) and hApoB mice and were diluted 500-fold before use.
Experimental steps: Equal amounts of Apo(a) and ApoB serum were mixed with a serially diluted test compound (highest concentration at 100 nM, serially diluted 3-fold). The mixture was incubated in a 37° C. incubator for 2 h. The reaction was then terminated by adding 6-aminocaproic acid (EACA, purchased from Sigma) to a final concentration of 150 mM. The post-reaction solution was then added to an ELISA plate pre-coated with ApoB-Capture antibody, and the plate was incubated at room temperature for 2 h. Then the plate was washed 4 times with wash buffer; biotinylated Apo(a)-Detector antibody was added, and the plate was incubated at room temperature for 1 h. The plate was washed, and the chromogenic substrate 3,3′,5,5′-tetramethylbenzidine (TMB, purchased from Abcam) solution was added. After the plate was incubated at room temperature for 15 min, a reaction stop solution was added. Immediately after the solution was mixed well, the absorbance at 450 nm was measured using a microplate reader. Finally, data analysis and IC50 calculation were performed using GraphPad Prism 9 software.
The 0% inhibition rate for Apo(a) and ApoB protein assembly corresponds to the OD value where the compound concentration was 0 (1% DMSO); the 100% inhibition rate for Apo(a) and ApoB protein assembly corresponds to the OD value where only ApoB protein solution (a dilution of plasma from hApoB mice) was added.

[2] = In vivo pharmacokinetic experiment on cynomolgus monkeys; conditions: intragastric; for AUC / half-life / Cmax: both sexes, cynomolgus monkey, plasma, po; for AUC: read-out: Area under curve AUC; for half-life: read-out: Half-life T1/2 (converted); for Cmax: read-out: Maximum plasma concentration Cmax
Protocol: (§1) Cynomolgus monkeys were used as test animals. After intragastric administration of the compound of the disclosure to cynomolgus monkeys, plasma concentrations at different time points were determined by LC/MS/MS. The pharmacokinetic behavior of the compound of the disclosure in cynomolgus monkeys was studied and its pharmacokinetic profile was evaluated.
Test Animals: 2 Healthy Cynomolgus Monkeys Aged 24-36 Months Per Group (One Male and One Female)
Compound solution preparation: Certain amounts of compound were weighed out and normal saline was added to form 10 mg/mL (reference 1) and 3 mg/mL (compound 6) colorless clear solutions.
Administration: Cynomolgus monkeys were fasted overnight and then intragastrically dosed. Reference 1 was administered at a dose of 50 mg/kg, and compound 6 was administered at a dose of 15 mg/kg.
(§2) Procedure: Cynomolgus monkeys were intragastrically administered the compound of the disclosure. Blood samples of about 0.5 mL were collected from the peripheral vein at 0.25, 0.5, 1, 2, 4, 6, 8, and 24 h post-dose and placed into test tubes containing EDTA-K2. The blood samples were centrifuged at about 4° C. at 2000 rpm for 10 min to separate plasma, and the plasma was stored at −75° C.
(§3) Determination of the content of the test compound in cynomolgus monkey plasma at these different blood collection time points: Samples of 33 μL (30 μL of plasma and 3 μL of blank) of the cynomolgus monkey plasma collected at these time points post-dose were taken and added to 18 μL of a 6% perchloric acid solution. After 30 s of vortexing, the mixture was centrifuged at a temperature of 4° C. at 3900 rpm for 15 min, and 200 μL of alkalinized (the pH was adjusted to 10-11 with ammonia water) acetonitrile solution containing dexamethasone as an internal standard was then added to precipitate protein. After 30 s of vortexing, the mixture was centrifuged at 4° C. at 3900 rpm for 15 min. The supernatants of the plasma samples were taken and 3-fold diluted with water, and 8 μL of dilution was taken for LC/MS/MS analysis.
(§4) After plasma concentrations were determined by LC/MS/MS analysis, pharmacokinetic parameters were calculated using WinNonlin 6.1 software and a non-compartmental model method.

[3] = High-dose single-dose tolerance experiment on mice; assay type: in vivo, C57/6J mice; conditions: for body weight trend of the mice: 7 d after high-dose (1000 mg/kg) administration, conclusion in words; for Mouse body weight, Day 0 / Mouse body weight, Day 3 / Mouse body weight, Day 5 / Mouse body weight, Day 7: male C57/6J mice, single oral gavage 1000 mg/kg, mean
Protocol: C57/6J mice were used as test animals and administered a high dose of the compound of the disclosure by oral gavage. Clinical observations were carried out on the mice, and the safety of the compound of the disclosure was evaluated.
Experimental method: 8 male C57/6J mice were numbered 1-8 and weighed. The mice were fasted for 4 h before the experiment and weighed after the fast (0 h). Six mice with body weights closer to the average were selected and divided into 2 groups of 3.
The first group (G1) was administered reference 1, and the second group (G2) was administered the compound of the disclosure, Example 6. In both groups G1 and G2, the compounds were administrated by oral gavage at a dose of 1000 mg/kg, with normal saline as a vehicle. Clinical observations were carried out on the mice in the experimental group at 15 min, 30 min, 1 h, 2 h, 4 h, 6 h, and 24 h post-dose, and both groups were given food at 2 h post-dose.

[4] = In vivo pharmacokinetic experiment on beagles; conditions: intragastric, 10 mg/kg
Protocol: as §1, with “Beagles” for “Cynomolgus monkeys”, “beagles,” for “cynomolgus monkeys,”, “beagles” for “cynomolgus monkeys”
Test Animals: 2 Healthy Male Beagles Aged 8-36 Months Per Group
Compound solution preparation: A certain amount of compound was weighed out and normal saline was added to form a 2 mg/mL colorless clear solution.
Administration: Beagles were fasted overnight and then intragastrically dosed. Reference 1 and compound 6 were both administered at a dose of 10 mg/kg.
as §2, with “Procedure: Beagles” for “Procedure: Cynomolgus monkeys”, “about 0.6” for “about 0.5”
as §3, with “beagle” for “cynomolgus monkey”
as §4

O=C(O)[C@@H](Cc1cccc(CN(CCN(Cc2cccc(C[C@H](C(=O)O)[C@H]3CCNC3)c2)Cc2cccc(C[C@H](C(=O)O)[C@H]3CCNC3)c2)Cc2cccc(C[C@H](C(=O)O)[C@H]3CCNC3)c2)c1)[C@H]1CCNC1 [Compound 4, (2S)-3-{3-[({2-[Bis({3-[(2S)-2-carboxy-2-[(3R)-pyrrolidin-3-yl]ethyl]phenyl}methyl)amino]ethyl}({3-[(2S)-2-carboxy-2-[(3R)-pyrrolidin-3-yl]ethyl]phenyl}methyl)amino)methyl]phenyl}-2-[(3R)-pyrrolidin-3-yl]propanoic acid] showed an IC50 [1] of 0.85 nM.
Work on O=C(O)C(F)(Cc1cccc(CN(Cc2cccc(CC(F)(C(=O)O)[C@H]3CCNC3)c2)Cc2cccc(CC(F)(C(=O)O)[C@H]3CCNC3)c2)c1)[C@H]1CCNC1 (stereo partly drawn) [Compound 3, 3-[3-({Bis[(3-{2-carboxy-2-fluoro-2-[(3S)-pyrrolidin-3-yl]ethyl}phenyl)methyl]amino}methyl)phenyl]-2-fluoro-2-[(3S)-pyrrolidin-3-yl]propanoic acid] yielded an IC50 [1] of 1.4 nM.
O=C(O)[C@@H](Cc1cccc(CNCCN(Cc2cccc(C[C@H](C(=O)O)[C@H]3CCNC3)c2)Cc2cccc(C[C@H](C(=O)O)[C@H]3CCNC3)c2)c1)[C@H]1CCNC1 [Compound 5, (2S)-3-(3-{[({3-[(2S)-2-Carboxy-2-[(3R)-pyrrolidin-3-yl]ethyl]phenyl}methyl)({2-[({3-[(2S)-2-carboxy-2-[(3R)-pyrrolidin-3-yl]ethyl]phenyl}methyl)amino]ethyl})amino]methyl}phenyl)-2-[(3R)-pyrrolidin-3-yl]propanoic acid] showed an IC50 [1] of 0.78 nM.
In the case of O=C(O)[C@@H](Cc1cccc(CN(Cc2cccc(C[C@H](C(=O)O)C3CCNCC3)c2)Cc2cccc(C[C@H](C(=O)O)C3CCNCC3)c2)c1)C1CCNCC1 [Compound 2, (2S)-3-(3-{[Bis({3-[(2S)-2-carboxy-2-(piperidin-4-yl)ethyl]phenyl}methyl)amino]methyl}phenyl)-2-(piperidin-4-yl)propanoic acid], the IC50 [1] is reported as 1.7 nM.
For O=C(O)[C@@H](Cc1cc(F)cc(CN(Cc2cc(F)cc(C[C@H](C(=O)O)[C@H]3CCNC3)c2)Cc2cc(F)cc(C[C@H](C(=O)O)[C@H]3CCNC3)c2)c1)[C@H]1CCNC1 [Compound 1, (2S)-3-(3-{[Bis({3-[(2S)-2-carboxy-2-[(3R)-pyrrolidin-3-yl]ethyl]-5-fluorophenyl}methyl)amino]methyl}-5-fluorophenyl)-2-[(3R)-pyrrolidin-3-yl]propanoic acid], the IC50 [1] was 0.75 nM.
Compound O=C(O)[C@@H](Cc1cccc(CN(CCNc2cccc(C[C@H](C(=O)O)[C@H]3CCNC3)c2)Cc2cccc(C[C@H](C(=O)O)[C@H]3CCNC3)c2)c1)[C@H]1CCNC1 [Compound 7, (2S)-3-[3-({[2-({3-[(2S)-2-Carboxy-2-[(3R)-pyrrolidin-3-yl]ethyl]phenyl}amino)ethyl]({3-[(2S)-2-carboxy-2-[(3R)-pyrrolidin-3-yl]ethyl]phenyl}methyl)amino}methyl)phenyl]-2-[(3R)-pyrrolidin-3-yl]propanoic acid pentahydrochloride] has an IC50 [1] of 0.76 nM.
Work on O=C(O)[C@@H](Cc1cccc(CN(Cc2cccc(C[C@H](C(=O)O)[C@H]3CCNC3)c2)Cc2cccc(C[C@H](C(=O)O)[C@H]3CCNC3)c2)c1)[C@H]1CCNC1 [Reference 1, reference compound] yielded an AUC ([2]; 50 mg/kg) of 22200 ng·h/mL, a half-life ([2]; 50 mg/kg) of 17.7 h and a Cmax ([2]; 50 mg/kg) of 2190 ng/mL. For the same compound, the Unit-dose area under curve AUC/D ([2]; 50 mg/kg) was 443 ng·h/mL per mg/kg, the “body weight trend of the mice” value [3] was “significant downward trend” and the “Mouse body weight, Day 0” value [3] was 25.87 g. For the same compound, the “Mouse body weight, Day 3” value [3] was 25.70 g, the “Mouse body weight, Day 5” value [3] was 25.10 g and the “Mouse body weight, Day 7” value [3] was 24.53 g. It also gave an AUC ([4]; male, beagle, dog, plasma, po, read-out: Area under curve AUC) of 23000 ng·h/mL, a half-life ([4]; male, beagle, dog, plasma, po, read-out: Half-life T1/2 (converted)) of 20.7 h and a Cmax ([4]; male, beagle, dog, plasma, po, read-out: Maximum plasma concentration Cmax) of 1630 ng/mL.
Compound O=C(O)[C@@H](Cc1cccc(CN(CCOc2cccc(C[C@H](C(=O)O)[C@H]3CCNC3)c2)Cc2cccc(C[C@H](C(=O)O)[C@H]3CCNC3)c2)c1)[C@H]1CCNC1 [Compound 6, (2S)-3-(3-{[(2-{3-[(2S)-2-Carboxy-2-[(3R)-pyrrolidin-3-yl]ethyl]phenoxy}ethyl)({3-[(2S)-2-carboxy-2-[(3R)-pyrrolidin-3-yl]ethyl]phenyl}methyl)amino]methyl}phenyl)-2-[(3R)-pyrrolidin-3-yl]propanoic acid tetrahydrochloride] has an IC50 [1] of 0.41 nM, an AUC ([2]; 15 mg/kg) of 33100 ng·h/mL and a half-life ([2]; 15 mg/kg) of 16.6 h. The Cmax ([2]; 15 mg/kg) was 2370 ng/mL, the Unit-dose area under curve AUC/D ([2]; 15 mg/kg) was 2200 ng·h/mL per mg/kg and the “plasma exposure relative to reference 1” value ([2]; compound 6 15 mg/kg vs reference 1 50 mg/kg) was ~5 times. For the same compound, the “oral absorption compared with reference 1” value ([2]; conclusion in words) was “better”, the “body weight trend of the mice” value [3] was “remained unchanged or even increased” and the “Mouse body weight, Day 0” value [3] was 25.83 g. The “Mouse body weight, Day 3” value [3] was 26.93 g, the “Mouse body weight, Day 5” value [3] was 26.70 g and the “Mouse body weight, Day 7” value [3] was 26.67 g. The “oral absorption compared with reference 1” value ([4]; conclusion in words) was “better”.
